These results are taken from article PMC9831606, “Computational design of peptides to target NaV1.7 channel with high potency and selectivity for the treatment of pain” (eLife, 2022).

Series [1] has as its system rats. The note with it: cited from earlier work.
The test system of series [2] is male and female rats. The experiment in a line: von Frey mechanical withdrawal threshold after oxaliplatin CIPN induction. The series is classed as in vivo, rat. The note with it: after single i.p. oxaliplatin 6 mg/kg, 3 days; baseline 72.9±2.7 grams. The method, then: Chronic pain models: Chemotherapy induced neuropathy was induced in rats with oxaliplatin after i.t catheter placement recovery with a single i.p. dose of oxaliplatin 6 mg/kg. The animals were allowed to recover for 3 days and then were assessed in the open field assay to ensure motor function and with a von Frey assay to assess allodynia to verify their pain state. The von Frey assay with an electronic aesthesiometer quantified the average baseline for a group of male and female rats to be 72.9±2.7 grams for the mechanical withdrawal threshold after cannulation but before CIPN model induction which fell to 27.9±2.7 grams indicating allodynia. On the day of treatment rats were assessed for baseline measures and then treated and assayed for […] responses.

Molecules are shown by their SMILES.

With `CSCC[C@@H]1NC(=O)CNC(=O)[C@H](CCC(=O)O)NC(=O)[C@@H]2CSSC[C@H](NC(=O)[C@@H](N)Cc3ccc(O)cc3)C(=O)N[C@@H](CCC(N)=O)C(=O)N[C@@H](CCCCN)C(=O)N[C@@H](Cc3c[nH]c4ccccc34)C(=O)N[C@@H](CCSC)C(=O)N[C@@H](Cc3c[nH]c4ccccc34)C(=O)N[C@@H]([C@@H](C)O)C(=O)N[C@H]3CSSC[C@H](NC(=O)[C@H](C(C)C)NC1=O)C(=O)N[C@@H](CCCNC(=N)N)C(=O)N[C@@H](CC(C)C)C(=O)N[C@@H](Cc1c[nH]c4ccccc14)C(=O)N[C@H](C(=O)N[C@@H](CCCCN)C(=O)N[C@@H](CCCCN)C(=O)N[C@@H](CCCCN)C(=O)N[C@@H](CC(C)C)C(=O)N[C@@H](Cc1c[nH]c4ccccc14)C(=O)O)CSSC[C@H](NC(=O)[C@H](CCCCN)NC(=O)[C@H](CCCNC(=N)N)NC(=O)[C@H](CCC(=O)O)NC(=O)[C@H](CO)NC(=O)[C@H](CC(=O)O)NC3=O)C(=O)N2` [WT ProTx-II], the “motor effect after intrathecal administration” value in series [1] (2.4 µg i.t., ref Schmalhofer et al., 2008) is listed as “laming effect”. The “maximum tolerated dose in rats” value in series [1] (in 10 µL, intrathecal, ref Flinspach et al., 2017) is 2 µg.
On to `O=C1[O][Pt]2([NH][C@@H]3CCCC[C@H]3[NH]2)[O]C1=O` [oxaliplatin], for which the “mechanical withdrawal threshold (von Frey, electronic aesthesiometer)” value in series [2] was determined as 27.9±2.7 grams.
